In PMC12661054, “The CIP2A-TOPBP1 axis facilitates mitotic DNA repair via MiDAS and MMEJ” (Nature Communications, 2025):
“Also recorded” adds a separate entry of the source.

Legend:
SLX4 Thr1260 = SLX4 Thr1260 phosphorylation in mitotic HEK293TN cells (western blot); assay type: cell-based, human; conditions: acute CDK1i (RO-3306 7 µM, 30 min) after 18 h 100 ng/ml nocodazole; eGFP-SLX4 or eGFP-TOPBP1 Co-IP
Description: (§1) GFP-Trap® Agarose Co-immunoprecipitation
(§2) HEK293TN cells were seeded to be ~25–30% confluence the next day in a 15 cm tissue culture dish. The following day cells were transfected using Lipofectamine 2000 transfection reagent (Thermo Fisher Scientific) with 24 µg of plasmid DNA encoding eGFP-SLX4 or eGFP-TOPBP1 expression cassettes following manufacturer’s instructions.
Forty eight hours post transfection cells were harvested after treatments as described, snap frozen on dry ice and stored at −80 °C. Cell pellets were removed from −80 storage and thawed on ice in 2.4 ml IP buffer 1 (100 mM NaCl, 0.2% Igepal CA-630, 1 mM MgCl2, 10% glycerol, 5 mM NaF, 50 mM Tris-HCl, pH 7.5), supplemented with EDTA Free […] protease inhibitor (Sigma Aldrich) and 25 U ml−1 Benzonase (Novagen). Cells were resuspended and rotated at 4 °C for 90 min. Benzonase was then inhibited by adjusted NaCl concentration to 200 mM and with the addition of 2 mM EDTA, followed by rotation for a further 30 min at 4 °C on a carousel. The cell suspension was then centrifuged at 16,000 x g for 25 min at 4 °C. […] The supernatant, now containing eluted material, was transferred to a new 1.5 ml microcentrifuge tube ready for downstream western blot analysis.

[1] = test system: eGFP-TOPBP1 interaction with SLX4, MUS81, ERCC1, BTR complex; test: eGFP-TOPBP1 co-immunoprecipitation, mitotic HEK293TN cells; assay type: cell-based, human; conditions: eGFP-TOPBP1 Co-IP; RO-3306 7 µM, 30 min
Description: as §1, §2
Forty eight hours post transfection cells were harvested after treatments as described, snap frozen on dry ice and stored at −80 °C. Cell pellets were removed from −80 storage and thawed on ice in 2.4 ml IP buffer 1 (100 mM NaCl, 0.2% Igepal CA-630, 1 mM MgCl2, 10% glycerol, 5 mM NaF, 50 mM Tris-HCl, pH 7.5), supplemented with EDTA Free […] protease inhibitor (Sigma Aldrich) and 25 U ml−1 Benzonase (Novagen). Cells were resuspended and rotated at 4 °C for 90 min. Benzonase was then inhibited by adjusted NaCl concentration to 200 mM and with the addition of 2 mM EDTA, followed by rotation for a further 30 min at 4 °C on a carousel. The cell suspension was then centrifuged at 16,000 x g for 25 min at 4 °C. In parallel, 20 µl agarose binding control bead (bab, Chromotek) slurry was washed with 500 µl IP buffer 2 (200 mM NaCl, 0.2% Igepal CA-630, 1 mM MgCl2, 10% glycerol, 5 mM NaF, 2 mM EDTA, 50 mM Tris-HCl, pH 7.5). The binding control beads were then centrifuged at 2500 x g for 2 min. The supernatant was then removed and the IP2 wash was repeated twice more. Cell lysates (soluble supernatant) were then collected added to the agarose binding control beads in 15 ml centrifuge tubes and subsequently rotated at 4 °C on carousel for 60 min. The agarose binding control beads were then pelleted by centrifugation at 2000 x g for 2 min, the supernatant was then transferred to a new tube. BCA assay was then carried out to determine the protein concentration of the pre-cleared cell lysate. […] The supernatant, now containing eluted material, was transferred to a new 1.5 ml microcentrifuge tube ready for downstream western blot analysis.

O=C1NC(=NCc2cccs2)S/C1=C\c1ccc2ncccc2c1 [CDK1i]
SLX4 Thr1260 phosphorylation (SLX4 Thr1260): reduced; also recorded: marked reduction in SLX4 Thr1260 phosphorylation | interaction between TOPBP1 and MUS81 or ERCC1 [1]: disrupted the interaction between TOPBP1 and MUS81 or ERCC1 | interaction between TOPBP1 and components of the BTR complex [1]: did not affect the interaction between TOPBP1 and components of the BTR complex | interaction between eGFP-TOPBP1 and SLX4 [1]: hindered the interaction between eGFP-TOPBP1 and SLX4
